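Tested at 5 concentrations; 48 h exposure; 96-well plates; endpoints linearly interpolated, else capped at highest concentration. TGI: total growth inhibition.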
Tests used:
Assay in all cases: growth of human tumour cells (NCI), 48 h
A498 renal = system: A498 renal
OVCAR-4 ovarian = system: OVCAR-4 ovarian
COLO 205 colon = system: COLO 205 colon
A549 NSCLC = system: A549 NSCLC
NCI-H522 lung = system: NCI-H522 lung
KM12 colon = system: KM12 colon
CAKI-1 renal = system: CAKI-1 renal
SNB-19 CNS = system: SNB-19 CNS
T-47D breast = system: T-47D breast
HCT-116 colon = system: HCT-116 colon
CCRF-CEM leukemia = system: CCRF-CEM leukemia
HCC-2998 colon = system: HCC-2998 colon
SK-MEL-5 melanoma = system: SK-MEL-5 melanoma
EKVX NSCLC = system: EKVX NSCLC
SNB-75 CNS = system: SNB-75 CNS
M19-MEL melanoma = system: M19-MEL melanoma
K-562 leukemia = system: K-562 leukemia
HOP-18 NSCLC = system: HOP-18 NSCLC
SK-MEL-2 melanoma = system: SK-MEL-2 melanoma
SW-620 colon = system: SW-620 colon
SF-268 CNS = system: SF-268 CNS
OVCAR-5 ovarian = system: OVCAR-5 ovarian
DMS 114 small cell lung = system: DMS 114 small cell lung
MDA-N = system: MDA-N
NCI-H460 lung = system: NCI-H460 lung
SNB-78 CNS = system: SNB-78 CNS
SF-295 CNS = system: SF-295 CNS
HCT-15 colon = system: HCT-15 colon
XF 498 CNS = system: XF 498 CNS
HL-60(TB) leukemia = system: HL-60(TB) leukemia
SK-OV-3 ovarian = system: SK-OV-3 ovarian
M14 melanoma = system: M14 melanoma
RXF 393 renal = system: RXF 393 renal
786-0 renal = system: 786-0 renal
MALME-3M melanoma = system: MALME-3M melanoma
MDA-MB-435 = system: MDA-MB-435
ACHN renal = system: ACHN renal
PC-3 prostate = system: PC-3 prostate
HT29 colon = system: HT29 colon
HOP-62 NSCLC = system: HOP-62 NSCLC
KM20L2 colon = system: KM20L2 colon
SF-539 CNS = system: SF-539 CNS
UACC-62 melanoma = system: UACC-62 melanoma
MDA-MB-231 breast = system: MDA-MB-231 breast
OVCAR-8 ovarian = system: OVCAR-8 ovarian
IGROV1 ovarian = system: IGROV1 ovarian
OVCAR-3 ovarian = system: OVCAR-3 ovarian
U251 CNS = system: U251 CNS
RPMI-8226 leukemia = system: RPMI-8226 leukemia
NCI-H23 lung = system: NCI-H23 lung
SN12C renal = system: SN12C renal
NCI-H226 lung = system: NCI-H226 lung
RXF-631 renal = system: RXF-631 renal
DU-145 prostate = system: DU-145 prostate
HOP-92 NSCLC = system: HOP-92 NSCLC
UO-31 renal = system: UO-31 renal
LOX IMVI melanoma = system: LOX IMVI melanoma
SK-MEL-28 melanoma = system: SK-MEL-28 melanoma
TK-10 renal = system: TK-10 renal
DLD-1 colon = system: DLD-1 colon
HS 578T breast = system: HS 578T breast
SR leukemia = system: SR leukemia
UACC-257 melanoma = system: UACC-257 melanoma
BT-549 breast = system: BT-549 breast
LXFL 529 NSCLC = system: LXFL 529 NSCLC
DMS 273 small cell lung = system: DMS 273 small cell lung

## O=C(c1ccc(Cl)cc1)C1OC12C(=O)Nc1ccccc12 (stereo unspecified)
A498 renal
  TGI: 36 µM
OVCAR-4 ovarian
  TGI: 34.1 µM
COLO 205 colon
  TGI: 8.53 µM
A549 NSCLC
  TGI: 58.6 µM
NCI-H522 lung
  TGI: 3.97 µM
KM12 colon
  TGI: 32.5 µM
CAKI-1 renal
  TGI: 20.6 µM
SNB-19 CNS
  TGI: 86.7 µM
T-47D breast
  TGI: 47.7 µM
HCT-116 colon
  TGI: 13.6 µM
CCRF-CEM leukemia
  TGI: 4.71 µM
HCC-2998 colon
  TGI: 34.1 µM
SK-MEL-5 melanoma
  TGI: 24.6 µM
EKVX NSCLC
  TGI: 33.4 µM
SNB-75 CNS
  TGI: 32 µM
M19-MEL melanoma
  TGI: 23.3 µM
K-562 leukemia
  TGI: 11.2 µM
HOP-18 NSCLC
  TGI: 27 µM
SK-MEL-2 melanoma
  TGI: 22.3 µM
SW-620 colon
  TGI: 17.4 µM
SF-268 CNS
  TGI: 40.2 µM
OVCAR-5 ovarian
  TGI: 36.2 µM
DMS 114 small cell lung
  TGI: 26.2 µM
MDA-N
  TGI: 14.5 µM
NCI-H460 lung
  TGI: 47.1 µM
SNB-78 CNS
  TGI: 32.4 µM
SF-295 CNS
  TGI: 33.7 µM
HCT-15 colon
  TGI: 11.2 µM
XF 498 CNS
  TGI: 25 µM
HL-60(TB) leukemia
  TGI: 1.58 µM
SK-OV-3 ovarian
  TGI: 60.4 µM
M14 melanoma
  TGI: 19 µM
RXF 393 renal
  TGI: 29.6 µM
786-0 renal
  TGI: 26.9 µM
MALME-3M melanoma
  TGI: 18.8 µM
MDA-MB-435
  TGI: 35.5 µM
ACHN renal
  TGI: 28.5 µM
PC-3 prostate
  TGI: 41 µM
HT29 colon
  TGI: 27.5 µM
HOP-62 NSCLC
  TGI: > 73.3 µM
KM20L2 colon
  TGI: 41.3 µM
SF-539 CNS
  TGI: 30.6 µM
UACC-62 melanoma
  TGI: 32.3 µM
MDA-MB-231 breast
  TGI: 50.5 µM
OVCAR-8 ovarian
  TGI: 36 µM
IGROV1 ovarian
  TGI: 39.1 µM
OVCAR-3 ovarian
  TGI: > 55.7 µM
U251 CNS
  TGI: 32 µM
RPMI-8226 leukemia
  TGI: 10.2 µM
NCI-H23 lung
  TGI: 32.9 µM
SN12C renal
  TGI: 19.3 µM
NCI-H226 lung
  TGI: 40.7 µM
RXF-631 renal
  TGI: 34.7 µM
DU-145 prostate
  TGI: 33.8 µM
HOP-92 NSCLC
  TGI: 30 µM
UO-31 renal
  TGI: 29.4 µM
LOX IMVI melanoma
  TGI: 4.67 µM
SK-MEL-28 melanoma
  TGI: 29.5 µM
TK-10 renal
  TGI: 35.2 µM
DLD-1 colon
  TGI: 6.29 µM
HS 578T breast
  TGI: 44.6 µM
SR leukemia
  TGI: 3.22 µM
UACC-257 melanoma
  TGI: 27.8 µM
BT-549 breast
  TGI: 31.4 µM
LXFL 529 NSCLC
  TGI: 11.8 µM
DMS 273 small cell lung
  TGI: 25.4 µM
